One block for each compound: values may come before it. Calls of active or inactive are those of the source. The rule behind the calls is not given here.
Assays:
[1] = molecular target: T1, Ferroportin (Mus musculus) (UniProt Q9JHI9); assay: Inhibition of ferroportin in mouse J774 cells assessed as induce ferroportin ubiquitination and degradation at 0.05 uM incubated for 120 mins by immunoprecipitation assay; assay type: cell-based
T1 sequence (whole entry): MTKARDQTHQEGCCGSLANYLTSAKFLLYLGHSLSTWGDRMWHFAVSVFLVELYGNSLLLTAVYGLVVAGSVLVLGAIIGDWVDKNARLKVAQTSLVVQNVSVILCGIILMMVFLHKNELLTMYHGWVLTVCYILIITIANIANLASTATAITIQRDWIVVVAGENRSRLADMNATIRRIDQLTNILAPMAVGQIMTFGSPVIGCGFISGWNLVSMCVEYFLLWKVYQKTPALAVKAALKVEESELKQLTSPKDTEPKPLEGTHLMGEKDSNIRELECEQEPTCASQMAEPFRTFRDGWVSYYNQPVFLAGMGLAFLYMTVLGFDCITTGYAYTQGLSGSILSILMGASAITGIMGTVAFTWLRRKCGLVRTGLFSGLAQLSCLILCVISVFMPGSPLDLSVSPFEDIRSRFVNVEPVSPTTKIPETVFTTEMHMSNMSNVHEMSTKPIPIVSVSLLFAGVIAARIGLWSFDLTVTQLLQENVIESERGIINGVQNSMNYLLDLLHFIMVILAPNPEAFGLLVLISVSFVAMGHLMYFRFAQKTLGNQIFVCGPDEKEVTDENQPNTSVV

[2] = molecular target: T1, Ferroportin (Mus musculus); assay: Inhibition of ferroportin in mouse J774 cells assessed as induce ferroportin ubiquitination and degradation at 0.05 uM incubated for 10 mins by immunoprecipitation assay; assay type: cell-based
[3] = molecular target: T1, Ferroportin (Mus musculus); assay: Inhibition of ferroportin in mouse J774 cells assessed as induce ferroportin ubiquitination and degradation at 0.04 uM incubated for 10 mins by immunoprecipitation assay; assay type: cell-based
[4] = molecular target: T1, Ferroportin (Mus musculus); assay: Inhibition of ferroportin in mouse J774 cells assessed as induce ferroportin ubiquitination and degradation at 0.04 uM incubated for 120 mins by immunoprecipitation assay; assay type: cell-based
Mus musculus [5] = assay: Prevention of hyperferremia in iron overloaded beta2-microglobulin deficient mouse assessed as reduction in serum iron level at 50 mg/kg, po measured after 3 hrs relative to control; assay type: functional, organism-based
[6] = molecular target: T1, Ferroportin (Mus musculus); assay: Inhibition of ferroportin in mouse J774 cells assessed as induce ferroportin ubiquitination and degradation at 0.3 uM incubated for 120 mins by immunoprecipitation assay; assay type: cell-based
[7] = molecular target: T1, Ferroportin (Mus musculus); assay: Inhibition of ferroportin in mouse J774 cells assessed as induce ferroportin ubiquitination and degradation at 0.3 uM incubated for 10 mins by immunoprecipitation assay; assay type: cell-based
Mus musculus [8] = assay: Induction of hypoferremia in orally dosed wild type C57BL/6 mouse assessed as decrease in serum iron levels measured after 3 hrs post dose; assay type: functional, organism-based
Mus musculus [9] = assay: Prevention of hyperferremia in iron overloaded beta2-microglobulin deficient female mouse assessed as reduction in serum iron level at 60 mg/kg, po measured after 3 hrs relative to control; assay type: functional; set-up: scale not given: the % may be the effect or the level left
Mus musculus [10] = assay: Prevention of hyperferremia in iron overloaded beta2-microglobulin deficient male mouse assessed as reduction in serum iron level at 60 mg/kg, po measured after 3 hrs relative to control; assay type: functional; set-up: scale not given: the % may be the effect or the level left
[11] = molecular target: T1, Ferroportin (Mus musculus); assay: Inhibition of ferroportin in mouse J774 cells assessed as induce ferroportin ubiquitination and degradation at 0.1 uM incubated for 120 mins by immunoprecipitation assay; assay type: cell-based
[12] = molecular target: T1, Ferroportin (Mus musculus); assay: Inhibition of ferroportin in mouse J774 cells assessed as induce ferroportin ubiquitination and degradation at 0.1 uM incubated for 10 mins by immunoprecipitation assay; assay type: cell-based
Mus musculus [13] = assay: Disease modifying capacity in mouse model of transfusion-independent beta-thalassemia intermedia assessed as decrease in bone marrow ROS levels level at 60 mg/kg, po BID for 27 days relative to control; assay type: functional; set-up: scale not given: the % may be the effect or the level left
[14] = molecular target: T1, Ferroportin (Mus musculus); assay: Inhibition of ferroportin in mouse J774 cells assessed as induce ferroportin ubiquitination and degradation at 0.5 uM incubated for 120 mins by immunoprecipitation assay; assay type: cell-based
[15] = molecular target: T1, Ferroportin (Mus musculus); assay: Inhibition of ferroportin in mouse J774 cells assessed as induce ferroportin ubiquitination and degradation at 0.5 uM incubated for 10 mins by immunoprecipitation assay; assay type: cell-based

inhibition [1]: Active | inhibition [2]: Active
SMILES: O=C(NCc1ncccc1F)c1coc(CCN(CCc2nc3ccccc3[nH]2)CCc2nc3ccccc3[nH]2)n1

SMILES: O=C(NCc1ncccc1F)c1csc(CCN(CCc2nc3ccccc3[nH]2)CCc2nc3ccccc3[nH]2)n1
inhibition [3]: Active | inhibition [4]: Active

inhibition [6]: Active | inhibition [7]: Active
SMILES: O=C(NCc1ncccc1F)c1csc(CCNCCc2nc3ccccc3[nH]2)n1
Activity (Mus musculus [5]): Active | Activity (Mus musculus [8]): Dose-dependent effect

SMILES: O=C(NCc1ncccc1F)c1cnn(CCNCCc2nc3ccccc3[nH]2)c1
inhibition [6]: Active | inhibition [7]: Active

inhibition [11]: Active | inhibition [12]: Active
SMILES: Cl.Cl.Cl.O=C(NCc1ncccc1F)c1coc(CCNCCc2nc3ccccc3[nH]2)n1 [VAMIFEPORT HYDROCHLORIDE]
Activity (Mus musculus [9]): 74% | Activity (Mus musculus [10]): 83% | Activity (Mus musculus [13]): 75%

SMILES: O=C(NCc1ncccc1F)c1coc(CCNCCc2nc3c(Cl)cccc3[nH]2)n1
inhibition [14]: Active | inhibition [15]: Active

Reference: ChEMBL document CHEMBL4419169, “Novel Ferroportin Inhibitors” (2018)
